The values that follow come from US10858356B2, “Pyrazolopyridine derivative having GLP-1 receptor agonist effect” (Chugai Seiyaku Kabushiki Kaisha, priority 2016, dated 2020).

For orientation: EC50 means the concentration giving half of the maximal effect. A lower EC50 goes with greater potency.

human GLP1R, sequence (P43220 24-463): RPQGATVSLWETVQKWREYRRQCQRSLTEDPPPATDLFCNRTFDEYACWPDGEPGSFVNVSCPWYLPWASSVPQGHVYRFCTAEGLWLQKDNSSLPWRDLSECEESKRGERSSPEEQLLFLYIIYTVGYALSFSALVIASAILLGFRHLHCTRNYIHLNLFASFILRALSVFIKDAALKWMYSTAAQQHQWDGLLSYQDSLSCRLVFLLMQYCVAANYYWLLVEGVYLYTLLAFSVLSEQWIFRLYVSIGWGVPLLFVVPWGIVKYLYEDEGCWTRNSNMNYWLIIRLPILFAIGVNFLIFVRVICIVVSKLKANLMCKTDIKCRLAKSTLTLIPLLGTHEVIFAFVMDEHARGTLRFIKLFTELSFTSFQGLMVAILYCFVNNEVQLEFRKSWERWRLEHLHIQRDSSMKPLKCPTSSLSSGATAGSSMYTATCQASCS

This experiment has as its target human GLP1R (Homo sapiens (Human), UniProt P43220). Kind of experiment: In vitro cAMP signal activation in human GLP1R stably-expressing cell line (hGLP1R-HEK293). Type of experiment: cell-based. The settings on record: cAMP concentration in hGLP1R-HEK293; 100% = 1 nM human GLP-1 (7-37).
Take `Cc1cc(-n2nc3c(c2-n2ccn(-c4ccc5c(cnn5CC(C)(C)O)c4F)c2=O)[C@H](C)N(C(=O)c2cc4cc([C@H]5CCOC(C)(C)C5)ccc4n2[C@@]2(c4noc(=O)[nH]4)C[C@@H]2C)CC3)cc(C)c1F` [Example 38, 3-[(1S,2S)-1-[5-[(4S)-2,2-dimethyloxan-4-yl]-2-[(4S)-2-(4-fluoro-3,5-dimethylphenyl)-3-[3-[4-fluoro-1-(2-hydroxy-2-methylpropyl)indazol-5-yl]-2-oxoimidazol-1-yl]-4-methyl-6,7-dihydro-4H-pyrazolo[4,3-c]pyridine-5-carbonyl]indol-1-yl]-2-methylcyclopropyl]-4H-1,2,4-oxadiazol-5-one]: a half-maximal response (EC50) required 1.7 nM.

In turn, `Cc1cc(-n2nc3c(c2-n2ccn(-c4ccc5c(c4)CC(=O)N(C)C5)c2=O)[C@H](C)N(C(=O)c2cc4cc([C@H]5CCOC(C)(C)C5)ccc4n2[C@@]2(c4noc(=O)[nH]4)C[C@@H]2C)CC3)cc(C)c1F` [Example 39, 3-[(1S,2S)-1-[5-[(4S)-2,2-dimethyloxan-4-yl]-2-[(4S)-2-(4-fluoro-3,5-dimethylphenyl)-4-methyl-3-[3-(2-methyl-3-oxo-1,4-dihydroisoquinolin-6-yl)-2-oxoimidazol-1-yl]-6,7-dihydro-4H-pyrazolo[4,3-c]pyridine-5-carbonyl]indol-1-yl]-2-methylcyclopropyl]-4H-1,2,4-oxadiazol-5-one] had an EC50 of 1 nM.

`Cc1cc(-n2nc3c(c2-n2ccn(-c4ccc5c(cnn5[C@H]5CCOC5)c4F)c2=O)[C@H](C)N(C(=O)c2cc4cc([C@H]5CCOC(C)(C)C5)ccc4n2[C@@]2(c4noc(=O)[nH]4)C[C@@H]2C)CC3)cc(C)c1F` [Example 40, 3-[(1S,2S)-1-[5-[(4S)-2,2-dimethyloxan-4-yl]-2-[(4S)-2-(4-fluoro-3,5-dimethylphenyl)-3-[3-[4-fluoro-1-[(3S)-oxolan-3-yl]indazol-5-yl]-2-oxoimidazol-1-yl]-4-methyl-6,7-dihydro-4H-pyrazolo[4,3-c]pyridine-5-carbonyl]indol-1-yl]-2-methylcyclopropyl]-4H-1,2,4-oxadiazol-5-one] showed an EC50 of 2.2 nM.

`Cc1cc(-n2nc3c(c2-n2ccn(-c4ccc5c(cnn5C)c4F)c2=O)[C@H](C)N(C(=O)c2cc4cc([C@H]5CCO[C@@H](C)C5)ccc4n2[C@@]2(c4noc(=O)[nH]4)C[C@@H]2C)CC3)cc(C)c1F` [Example 41, 3-[(1S,2S)-1-[2-[(4S)-2-(4-fluoro-3,5-dimethylphenyl)-3-[3-(4-fluoro-1-methylindazol-5-yl)-2-oxoimidazol-1-yl]-4-methyl-6,7-dihydro-4H-pyrazolo[4,3-c]pyridine-5-carbonyl]-5-[(2S,4S)-2-methyloxan-4-yl]indol-1-yl]-2-methylcyclopropyl]-4H-1,2,4-oxadiazol-5-one] returned an EC50 of 2.4 nM.

`Cc1cc(-n2nc3c(c2-n2ccn(-c4ccc5c(cnn5CC(F)(F)F)c4F)c2=O)[C@H](C)N(C(=O)c2cc4cc([C@H]5CCOC(C)(C)C5)ccc4n2[C@@]2(c4noc(=O)[nH]4)C[C@@H]2C)CC3)cc(C)c1Cl` [Example 42, 3-[(1S,2S)-1-[2-[(4S)-2-(4-chloro-3,5-dimethylphenyl)-3-[3-[4-fluoro-1-(2,2,2-trifluoroethyl)indazol-5-yl]-2-oxoimidazol-1-yl]-4-methyl-6,7-dihydro-4H-pyrazolo[4,3-c]pyridine-5-carbonyl]-5-[(4S)-2,2-dimethyloxan-4-yl]indol-1-yl]-2-methylcyclopropyl]-4H-1,2,4-oxadiazol-5-one]: a half-maximal effect (EC50) was put at 1.9 nM.

As to `COCCn1ncc2c(F)c(-n3ccn(-c4c5c(nn4-c4cc(C)c(Cl)c(C)c4)CCN(C(=O)c4cc6cc([C@H]7CCOC(C)(C)C7)ccc6n4[C@@]4(c6noc(=O)[nH]6)C[C@@H]4C)[C@H]5C)c3=O)ccc21` [Example 43, 3-[(1S,2S)-1-[2-[(4S)-2-(4-chloro-3,5-dimethylphenyl)-3-[3-[4-fluoro-1-(2-methoxyethyl)indazol-5-yl]-2-oxoimidazol-1-yl]-4-methyl-6,7-dihydro-4H-pyrazolo[4,3-c]pyridine-5-carbonyl]-5-[(4S)-2,2-dimethyloxan-4-yl]indol-1-yl]-2-methylcyclopropyl]-4H-1,2,4-oxadiazol-5-one], the response was half-maximal at 1.5 nM (EC50).

As to `Cc1cc(-n2nc3c(c2-n2ccn(-c4ccc5c(cnn5CC(F)(F)F)c4F)c2=O)[C@H](C)N(C(=O)c2cc4cc(C5CCOCC5)ccc4n2[C@@]2(c4noc(=O)[nH]4)C[C@@H]2C)CC3)cc(C)c1Cl` [Example 44, 3-[(1S,2S)-1-[2-[(4S)-2-(4-chloro-3,5-dimethylphenyl)-3-[3-[4-fluoro-1-(2,2,2-trifluoroethyl)indazol-5-yl]-2-oxoimidazol-1-yl]-4-methyl-6,7-dihydro-4H-pyrazolo[4,3-c]pyridine-5-carbonyl]-5-(oxan-4-yl)indol-1-yl]-2-methylcyclopropyl]-4H-1,2,4-oxadiazol-5-one], the EC50 turned out to be 1.5 nM.

`COCCn1ncc2c(F)c(-n3ccn(-c4c5c(nn4-c4cc(C)c(Cl)c(C)c4)CCN(C(=O)c4cc6cc(C7CCOCC7)ccc6n4[C@@]4(c6noc(=O)[nH]6)C[C@@H]4C)[C@H]5C)c3=O)ccc21` [Example 45, 3-[(1S,2S)-1-[2-[(4S)-2-(4-chloro-3,5-dimethylphenyl)-3-[3-[4-fluoro-1-(2-methoxyethyl)indazol-5-yl]-2-oxoimidazol-1-yl]-4-methyl-6,7-dihydro-4H-pyrazolo[4,3-c]pyridine-5-carbonyl]-5-(oxan-4-yl)indol-1-yl]-2-methylcyclopropyl]-4H-1,2,4-oxadiazol-5-one]: the EC50 amounted to 1.6 nM.

As to `Cc1cc(-n2nc3c(c2-n2ccn(-c4ccc5c(cnn5CC(F)(F)F)c4F)c2=O)[C@H](C)N(C(=O)c2cc4cc(C5CCOCC5)ccc4n2[C@@]2(c4noc(=O)[nH]4)C[C@@H]2C)CC3)ccc1F` [Example 46, 3-[(1S,2S)-1-[2-[(4S)-2-(4-fluoro-3-methylphenyl)-3-[3-[4-fluoro-1-(2,2,2-trifluoroethyl)indazol-5-yl]-2-oxoimidazol-1-yl]-4-methyl-6,7-dihydro-4H-pyrazolo[4,3-c]pyridine-5-carbonyl]-5-(oxan-4-yl)indol-1-yl]-2-methylcyclopropyl]-4H-1,2,4-oxadiazol-5-one], the EC50 came out at 3.3 nM.

For `COCCn1ncc2c(F)c(-n3ccn(-c4c5c(nn4-c4ccc(F)c(C)c4)CCN(C(=O)c4cc6cc(C7CCOCC7)ccc6n4[C@@]4(c6noc(=O)[nH]6)C[C@@H]4C)[C@H]5C)c3=O)ccc21` [Example 47, 3-[(1S,2S)-1-[2-[(4S)-3-[3-[4-fluoro-1-(2-methoxyethyl)indazol-5-yl]-2-oxoimidazol-1-yl]-2-(4-fluoro-3-methylphenyl)-4-methyl-6,7-dihydro-4H-pyrazolo[4,3-c]pyridine-5-carbonyl]-5-(oxan-4-yl)indol-1-yl]-2-methylcyclopropyl]-4H-1,2,4-oxadiazol-5-one], the EC50 was 2 nM.

On to `COCCn1ncc2c(F)c(-n3ccn(-c4c5c(nn4-c4ccc(F)c(C)c4)CCN(C(=O)c4cc6cc([C@H]7CCOC(C)(C)C7)ccc6n4[C@@]4(c6noc(=O)[nH]6)C[C@@H]4C)[C@H]5C)c3=O)ccc21` [Example 48, 3-[(1S,2S)-1-[5-[(4S)-2,2-dimethyloxan-4-yl]-2-[(4S)-3-[3-[4-fluoro-1-(2-methoxyethyl)indazol-5-yl]-2-oxoimidazol-1-yl]-2-(4-fluoro-3-methylphenyl)-4-methyl-6,7-dihydro-4H-pyrazolo[4,3-c]pyridine-5-carbonyl]indol-1-yl]-2-methylcyclopropyl]-4H-1,2,4-oxadiazol-5-one], for which the EC50 came out at 3 nM.

For `Cc1cc(-n2nc3c(c2-n2ccn(-c4ccc5c(cnn5C)c4Cl)c2=O)[C@H](C)N(C(=O)c2cc4cc([C@H]5CCOC(C)(C)C5)ccc4n2[C@@]2(c4noc(=O)[nH]4)C[C@@H]2C)CC3)ccc1F` [Example 49, 3-[(1S,2S)-1-[2-[(4S)-3-[3-(4-chloro-1-methylindazol-5-yl)-2-oxoimidazol-1-yl]-2-(4-fluoro-3-methylphenyl)-4-methyl-6,7-dihydro-4H-pyrazolo[4,3-c]pyridine-5-carbonyl]-5-[(4S)-2,2-dimethyloxan-4-yl]indol-1-yl]-2-methylcyclopropyl]-4H-1,2,4-oxadiazol-5-one], a half-maximal effect (EC50) was put at 3.8 nM.

Consider `Cc1cc(-n2nc3c(c2-n2ccn(-c4ccc5c(cnn5C)c4)c2=O)[C@H](C)N(C(=O)c2cc4cc([C@H]5CCOC(C)(C)C5)ccc4n2[C@@]2(c4noc(=O)[nH]4)C[C@@H]2C)CC3)ccc1F` [Example 50, 3-[(1S,2S)-1-[5-[(4S)-2,2-dimethyloxan-4-yl]-2-[(4S)-2-(4-fluoro-3-methylphenyl)-4-methyl-3-[3-(1-methylindazol-5-yl)-2-oxoimidazol-1-yl]-6,7-dihydro-4H-pyrazolo[4,3-c]pyridine-5-carbonyl]indol-1-yl]-2-methylcyclopropyl]-4H-1,2,4-oxadiazol-5-one], for which the EC50 was 2.9 nM.

The compound `Cc1cc(-n2nc3c(c2-n2ccn(-c4ccc5c(cnn5C)c4)c2=O)CN(C(=O)c2cc4cc(N5CCOC6(CC6)C5)ccc4n2[C@@]2(c4noc(=O)[nH]4)C[C@@H]2C)CC3)cc(C)c1F` [compound 52] registered an EC50 of 6.7 nM.

With `CC[C@H]1CN(c2ccc3c(c2)cc(C(=O)N2CCc4nn(-c5cc(C)c(F)c(C)c5)c(-n5ccn(-c6ccc7c(cnn7C)c6)c5=O)c4C2)n3[C@@]2(c3noc(=O)[nH]3)C[C@@H]2C)CCO1` [compound 53], the half-maximal effective concentration (EC50) was determined as 2.9 nM.

On to `Cc1cc(-n2nc3c(c2-n2ccn(-c4ccc5c(cnn5C)c4)c2=O)CN(C(=O)c2cc4cc(C5CCOCC5)ccc4n2[C@@]2(c4noc(=O)[nH]4)C[C@@H]2C)CC3)cc(C)c1F` [compound 54, 3-[(1S,2S)-1-[2-[2-(4-fluoro-3,5-dimethylphenyl)-3-[3-(1-methylindazol-5-yl)-2-oxoimidazol-1-yl]-6,7-dihydro-4H-pyrazolo[4,3-c]pyridine-5-carbonyl]-5-(oxan-4-yl)indol-1-yl]-2-methylcyclopropyl]-4H-1,2,4-oxadiazol-5-one], for which the EC50 was 3.9 nM.
